This note sets out measurements from patent US20100298370A1, “BENZOTHIAZOLYL THIENOPYRIDINE DERIVATIVES AND USES THEREOF” (priority 2006, published 2010).

The test system of test [1] is carrageenan-induced paw edema in BALB/c mice. The test can be described thus: Carrageenan-induced paw edema. The class given is in vivo. The note with it: 20 mg/kg i.p., 60 min before carrageenan; 4 hours after induction. The procedure: FIG. 1 is a graph showing the anti-inflammatory activity of Compounds 1-6 administered to mice intraperitoneally (i.p.) at 20 mg/kg, 1 hour before induction of paw edema (10-12 mice per group). The swelling of paws was measured 4 hours after induction, compared to controls and expressed as difference in paw thickness in mm (y-axis). The results were statistically evaluated by Student's t-test and statistical significance is indicated by one, two or three stars ([…]).
Acute edema was induced in the […] of BALB/c mice (10-12 mice/group) by injecting 0.02 ml of freshly prepared solution of 2% carrageenan (Sigma) under the plantar region of right hind paw (Tones et al., 2000). Carrageenan was injected 60 min after administration of the test compounds. The right paw received 0.02 ml of saline, which served as a control. The paw thickness was measured at 2, 4 and 24 hours after carrageenan challenge using a Mitutoyo engineer's micrometer. The difference between right and left pad was expressed as mean±SEM. Test compounds were injected intraperitoneally (i.p.) (20 mg/kg) in 0.5% Tween 80 in saline and vehicle control group received 0.5% Tween 80 in saline.
Compound 1 reduced paw edema by 33% and the reduction was statistically significant as determined by Student's t-test with […].
For orientation: The carrageenan paw model is a standard test of acute inflammation.

In test [2] the target is T1, VEGF binding to heparin (HS-GAG) (Homo sapiens, UniProt P15692).
T1 construct: purchased Research and Development Systems
T1 sequence (P15692 27-191 isoform P15692-4): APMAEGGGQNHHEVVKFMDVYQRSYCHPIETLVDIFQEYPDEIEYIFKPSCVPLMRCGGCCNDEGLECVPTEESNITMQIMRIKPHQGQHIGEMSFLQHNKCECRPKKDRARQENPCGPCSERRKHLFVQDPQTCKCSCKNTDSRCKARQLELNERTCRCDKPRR
In words: In vitro VEGF to HS-GAG binding assay (ELISA, heparin-BSA coated plate). The source says: An in vitro assay was used to assess the ability of test compounds of general formulas I and II to inhibit the interaction of VEGF with HS-GAGs. The assay was designed to for determine the concentration required for 50% inhibition (IC-50) for each specific compound. The test compounds were purchased from Life Chemicals Ltd. (Kiev, Ukraine), and the GAG used was heparin (heparin grade I-A; Sigma) conjugated to bovine serum albumin (Sigma) and diluted 1:200 in phosphate-buffered saline (PBS; pH 7.3). The heparin was added to a 96-well polystyrene ELISA plate (NUNC; 0.1 ml per well) and incubated overnight at 4° C. Following the incubation, the plate was washed thoroughly, by immersion, with de-ionized water and then with PBS (pH 7.3) containing Tween 20 (Sigma, 0.05%). The ELISA plate was then blocked with BSA (ICN, 3%, 200 μl per well) for 1 hour at room temperature. Following blocking, the plate was washed with de-ionized water, and then twice with PBS (pH 7.3) containing Tween 20. Recombinant human VEGF (Research and Development Systems) dissolved in PBS supplemented with BSA (0.1%) was added to the ELISA plate. The test compounds were dissolved in DMSO (MERCK), diluted in PBS and added to the wells at concentrations ranging from 0.01 to 200 μM to obtain a final volume 100 μl per well, and incubated for 60 minutes at room temperature with shaking. Following incubation, the plate was washed with de-ionized water and PBS (pH 7.3) containing Tween 20. Anti-human VEGF (1:2000; Research and Development Systems) diluted in PBS supplemented with BSA (1%) was added to the ELISA plate (100 per well) and incubated for 60 minutes at room temperature with shaking. Following incubation, the plate was washed with de-ionized water and then with PBS (pH 7.3) containing Tween 20. Streptavidin-HRP (1:200; Research and Development Systems Cat. No. DY998) diluted in PBS supplemented with BSA (1%) was added to the ELISA plate (100 per well) and incubated for 20 minutes at room temperature with shaking. The plate was then washed with de-ionized water and twice with PBS (pH 7.3) containing Tween 20. The peroxidase substrate chromogen tetramethyl benzidine (TMB; Dako) was added (100 μl per well) to the ELISA plate and incubated at room temperature. After 15 minutes, ELISA Stop Solution (hydrochloric acid 1N, sulfuric acid 3N) was added (100 μl per well) to stop the peroxidase catalyzed colorimetric reaction. The Optical Density (OD) of the samples was measured at 450 nm using an ELISA plate reader (Dynatech MR5000). Data were analyzed with Graphpad Prism software and IC-50 values were determined.
Percent inhibition at 30 μM concentration is shown and for selected compounds IC-50 was established.
A general note: In an ELISA, binding on a coated surface is turned into a signal by an enzyme label.

The subject of test [3] is oxazolone-induced ear swelling in BALB/c mice. The test can be described thus: Delayed-type hypersensitivity (DTH), oxazolone mouse ear-swelling test. The note with it: for inhibition of ear swelling (in words): DTH, FIG. 2, oral 50 mg/kg; for reduction of ear swelling: per os 50 mg/kg, 1 hour prior to challenge, after 48 hours. The class given is in vivo. The procedure: FIG. 2 is a graph showing the anti-inflammatory activity of Compounds 1, 2, 4, 5, 6 administered to mice orally at 50 mg/kg in a model of delayed-type hypersensitivity (DTH) (11-13 mice per group). The results for dexamethasone (10 mg/kg i.p.), a steroid positive control, are also shown. The y-axis represents difference in ear thickness in mm compared to control. The results were statistically evaluated by Student's t-test and statistical significance is indicated by one, two or three stars ([…]).
BALB/c mice (Velaz, Prague, Czech Republic; 8 week-old; 10-15 animals per group) were sensitized by topical application of a 2% oxazolone (4-ethoxymethylene-2-phenyl-2-oxazolin-5-one; Sigma, St Louis, Mo.) solution in acetone/olive oil (4:1 vol/vol) to a shaved abdomen area (50 μl) and to each paw (5 μl)(Lange-Asschenfeldt et al., 2002). Topical oxazolone administration induces immunomodulatory activity. Five days after sensitization, right ears were challenged by topical application of 10 μl of a 1% oxazolone solution, whereas left ears were treated with vehicle alone. Test compounds were administered 1 hour prior to challenge. The extent of inflammation was measured 24 hours and 48 hours after challenge, using the mouse ear-swelling test. Animals were numbered (tail marking) and weighed and the thickness of both ears was recorded with a constant-loading dial micrometer (Mitutoyo, Tokyo). The unpaired Student t-test was used for statistical analyses. Test compounds were administered per os at 50 mg/kg as a suspension with 0.5% methylcellulose. The vehicle control group received the same volume of 0.5% methylcellulose.

Entries after “also recorded” stand apart in the source; their conditions may differ.

In general, IC50 refers to the point on the concentration scale where inhibition reaches its midpoint. A high value points to lower potency. Broadly, the inhibition is the change of the read-out against control, counted positive when it falls. Read a low inhibition as a response near the control.

As to `CN1CCc2c(sc(NC(=O)c3cc4ccccc4o3)c2-c2nc3ccccc3s2)C1` [Compound 5, N-[3-(2-benzothiazolyl)-4,5,6,7-tetrahydro-6-methylthieno[2,3-c]pyridin-2-yl]-benzo[b]furan-2-carboxamide], in test [1], the “reduction of paw edema” value came out at 29.2%. In test [2], this compound registered an IC50 of 140 nM and an inhibition at 30 µM of 81%. Moreover, the “inhibition of ear swelling (in words)” value in test [3] (50 mg/kg) is recorded as “significantly inhibited ear swelling; also recorded: Particularly strong response, comparable with the steroid dexamethasone”. In addition, the “reduction of ear swelling” value in test [3] came to 49.3%.
With `CC(C)N1CCc2c(sc(NC(=O)c3ccc(N(C)C)cc3)c2-c2nc3ccccc3s2)C1` [Compound 2, N-[3-(2-benzothiazolyl)-4,5,6,7-tetrahydro-6-(1-methylethyl)thieno[2,3-c]pyridin-2-yl]-4-(dimethylamino)benzamide], the “reduction of paw edema” value in test [1] amounted to 28.1%. In test [2], this compound had an IC50 of 1700 nM and an inhibition at 30 µM of 53%. Also, in test [3], the “reduction of ear swelling” value was determined as 18.1%.
Turning to `C[C@@H]1C[C@H]2[C@@H]3CCC4=CC(=O)C=C[C@]4(C)[C@@]3(F)[C@@H](O)C[C@]2(C)[C@@]1(O)C(=O)CO` [dexamethasone, reference compound], the “reduction in ear swelling” value in test [3] (dexamethasone positive control, i.p. (10 mg/kg per FIG. 2)) is recorded as 46.5%.
As to `CN1CCc2c(sc(NC(=O)CCN3C(=O)c4ccccc4C3=O)c2-c2nc3ccccc3s2)C1` [Compound 6, N-[3-(2-benzothiazolyl)-4,5,6,7-tetrahydro-6-methylthieno[2,3-c]pyridin-2-yl]-3-(1,3-dihydro-1,3-dioxo-2H-isoindole-2)propanamide], the “reduction of paw edema” value in test [1] amounted to 19.5%. The inhibition at 30 µM in test [2] was 29%. For the same compound, in test [3], the “inhibition of ear swelling (in words)” value was “significantly inhibited ear swelling” and the “reduction of ear swelling” value came out at 19.1%.
In the case of `CCN1CCc2c(sc(NC(=O)c3ccc(C#N)cc3)c2-c2nc3ccccc3s2)C1` [Compound 1, N-[3-(2-benzothiazolyl)-4,5,6,7-tetrahydro-6-ethylthieno[2,3-c]pyridin-2-yl]-4-cyanobenzamide], in test [1], the “reduction of paw edema” value worked out at 33%. Besides, in test [2], the IC50 is 220 nM and the inhibition at 30 µM stood at 82%. In addition, the “reduction of ear swelling” value in test [3] turned out to be 41.4%.
As for `COc1cccc(OCC(=O)Nc2sc3c(c2-c2nc4ccccc4s2)CCN(C)C3)c1` [Compound 4, N-[3-(2-benzothiazolyl)-4,5,6,7-tetrahydro-6-methylthieno[2,3-c]pyridin-2-yl]-2-(3-methoxyphenoxy)acetamide], the “reduction of paw edema” value in test [1] is listed as 22.8%. In test [2], this compound had a 50% inhibitory concentration (IC50) of 1800 nM and an inhibition at 30 µM of 65%. For the same compound, in test [3], the “inhibition of ear swelling (in words)” value is reported as “significantly inhibited ear swelling” and the “reduction of ear swelling” value is listed as 33.5%.
In test [2], `O=C(Nc1sc2c(c1-c1nc3ccccc3s1)CCN(Cc1ccccc1)C2)C1COc2ccccc2O1` (stereo not drawn) [Compound 33, N-[3-(2-benzothiazolyl)-4,5,6,7-tetrahydro-6-phenylmethylthieno[2,3-c]pyridin-2-yl]-2,3-dihydro-1,4-benzodioxin-2-carboxamide] gave an inhibition at 30 µM of 50%.
`CN1CCc2c(sc(NC(=O)CN3C(=O)c4ccccc4C3=O)c2-c2nc3ccccc3s2)C1` [Compound 30, N-[3-(2-benzothiazolyl)-4,5,6,7-tetrahydro-6-methylthieno[2,3-c]pyridin-2-yl]-1,3-dihydro-1,3-dioxo-2H-isoindole-2-acetamide] registered an inhibition at 30 µM in test [2] of 29%.
Still for that read-out and setting: to `O=C(Nc1sc2c(c1-c1nc3ccccc3s1)CCN(Cc1ccccc1)C2)c1ccc(Br)s1` [Compound 24, N-[3-(2-benzothiazolyl)-4,5,6,7-tetrahydro-6-phenylmethylthieno[2,3-c]pyridin-2-yl]-2-(5-bromo)thiophenecarboxamide] belongs 52%.
Take `CSc1ccc(CC(=O)Nc2sc3c(c2-c2nc4ccccc4s2)CCN(C)C3)cc1` [Compound 3, N-[3-(2-benzothiazolyl)-4,5,6,7-tetrahydro-6-methylthieno[2,3-c]pyridin-2-yl]-2-(4-methylthiophenyl)acetamide]: the “reduction of paw edema” value in test [1] is given as 32.1%. Moreover, the inhibition at 30 µM in test [2] is 60%.
As to `Cc1ccc(S(=O)(=O)CC(=O)Nc2sc3c(c2-c2nc4ccccc4s2)CCN(C)C3)cc1` [Compound 39, N-[3-(2-benzothiazolyl)-4,5,6,7-tetrahydro-6-methylthieno[2,3-c]pyridin-2-yl]-(4-methylphenylsulfonyl)acetamide], testing at 30 µM in test [2] gave an inhibition of 42%.
Compound `CN1CCc2c(sc(NC(=O)c3cccc(C(F)(F)F)c3)c2-c2nc3ccccc3s2)C1` [Compound 16, N-[3-(2-benzothiazolyl)-4,5,6,7-tetrahydro-6-methylthieno[2,3-c]pyridin-2-yl]-3-trifluoromethylbenzamide] displayed an inhibition at 30 µM in test [2] of 61%.
With `CC(=O)c1ccc(C(=O)Nc2sc3c(c2-c2nc4ccccc4s2)CCN(Cc2ccccc2)C3)cc1` [Compound 8, N-[3-(2-benzothiazolyl)-4,5,6,7-tetrahydro-6-phenylmethylthieno[2,3-c]pyridin-2-yl]-4-acetylbenzamide], in test [2], the IC50 worked out at 400 nM and testing at 30 µM gave an inhibition of 82%.
`Cc1ccc(CC(=S)Nc2sc3c(c2-c2nc4ccccc4s2)CCN(C)C3)cc1` [Compound 40, N-[3-(2-benzothiazolyl)-4,5,6,7-tetrahydro-6-methylthieno[2,3-c]pyridin-2-yl]-(4-methylphenyl)thioacetamide] showed an inhibition at 30 µM in test [2] of 41%.
